Earlier results in patent US8415326B2, “Pharmaceutical composition comprising chito-oligomers” (Genis Ehf., priority 2001, dated 2013).

Columns and labels:
activated macrophages = conditions: reference [23]
[1] = tested on: normal human articular chondrocytes; conditions: reference [24]
[2] = tested on: mesothelial cells and fibroblasts; conditions: reference [11]

Q: Which “effect on nitric oxide (NO) production by activated macrophages” value (activated macrophages) does the source give for `CC(=O)N[C@H]1[C@H](O[C@H]2[C@H](O)[C@@H](NC(C)=O)[C@H](O[C@H]3[C@H](O)[C@@H](NC(C)=O)C(O)O[C@@H]3CO)O[C@@H]2CO)O[C@H](CO)[C@@H](O[C@@H]2O[C@H](CO)[C@@H](O[C@@H]3O[C@H](CO)[C@@H](O[C@@H]4O[C@H](CO)[C@@H](O)[C@H](O)[C@H]4NC(C)=O)[C@H](O)[C@H]3NC(C)=O)[C@H](O)[C@H]2NC(C)=O)[C@@H]1O` (some centres unmarked) [Hexa-N-acetylchitohexaose] here?
A: Its value is “inhibited NO production but with less potency”.

Q: Which results are given for `CC(=O)N[C@H]1C(O)O[C@H](CO)[C@@H](O)[C@@H]1O` (some centres unmarked) [N-acetylglucosamine]?
A: effect on NO production in normal human articular chondrocytes [1]: inhibit NO production; synthesis of hyaluronan [2]: increases the synthesis of hyaluronan

Q: With `N[C@H]1C(O)O[C@H](CO)[C@@H](O)[C@@H]1O` (some centres unmarked) [glucosamine] as the compound, how does the “effect on NO production in normal human articular chondrocytes” value [1] read?
A: The value was “inhibit NO production”.

Q: For `CC(=O)N[C@H]1[C@H](O[C@H]2[C@H](O)[C@@H](NC(C)=O)[C@H](O[C@H]3[C@H](O)[C@@H](NC(C)=O)C(O)O[C@@H]3CO)O[C@@H]2CO)O[C@H](CO)[C@@H](O[C@@H]2O[C@H](CO)[C@@H](O[C@@H]3O[C@H](CO)[C@@H](O)[C@H](O)[C@H]3NC(C)=O)[C@H](O)[C@H]2NC(C)=O)[C@@H]1O` (some centres unmarked) [penta-N-acetylchitopentaose], which “effect on nitric oxide (NO) production by activated macrophages” value (activated macrophages) is on record?
A: The value was “inhibited NO production but with less potency”.
